# From US11098053B2, “Enhanced osteogenic activity of daidzein analogs on human mesenchymal stem cells” (THE ADMINISTRATORS OF THE TULANE EDUCATIONAL FUND, priority 2013, dated 2021)
# “Also recorded” adds a separate entry of the source.
# How the values were obtained:
# [1] = tested on: Human bone marrow derived mesenchymal stem cells (MSCs); assay: Osteogenic differentiation of MSCs (Alizarin Red calcium deposition); conditions: for osteogenic activity (structure-activity summary, in words): donor MSCs; for osteogenic activity (structure-activity summary, in words) / osteogenesis averaged over all three donors, relative to vehicle treated MSCs / cytotoxicity to donor MSCs: 1 μM; for IC50: read-out: IC50 averaged among the three donors, mean of three donors; for cytotoxicity to donor MSCs: MSCs from three donors (toxic in Donor 2 and Donor 3); for osteogenic differentiation of MSCs, fold relative to vehicle treated MSCs: daidzein 1 μM, genistein 1 μM, Alizarin Red
# ASCs = assay: Osteogenic differentiation of ASCs (alizarin red); conditions: 14 days; for cytotoxicity of ASCs by bright field microscopy, compared to vehicle / osteogenic differentiation (calcium deposition), fold relative to vehicle-treated ASCs: estrogen 10 nM, others 1 μM; for osteogenic differentiation (calcium deposition), fold relative to vehicle-treated ASCs: n=6 donors
# BMSCs = assay: Osteogenic differentiation of BMSCs (alizarin red); conditions: 14 days; for cytotoxicity of BMSCs by bright field microscopy, compared to vehicle / osteogenic differentiation (calcium deposition), fold relative to vehicle-treated BMSCs: estrogen 10 nM, others 1 μM; for osteogenic differentiation (calcium deposition), fold relative to vehicle-treated BMSCs: n=6 donors
# [2] = tested on: MSCs (Sp7, ALP, OP, IGF1 transcripts); assay: qRT-PCR of osteogenic transcription factors in MSCs; type: cell-based, human; conditions: pooled MSCs, 1 μM, 14 days
# Source text: . […] The following primer set sequence for was used: Sp7 forward 5′-CCAGTGTCTACACCTCTC-3′ (SEQ ID NO: 1), reverse 5′-ATGGAGTAGGAGTGTTGC-3′ (SEQ ID NO: 2); IGF-1 forward 5′-CTGTGATCTAAGGAGGCTG-3′ (SEQ ID NO: 3), reverse 5′-[…]-3′ (SEQ ID NO: 4); ALP forward 5′-[…]-3′ (SEQ ID NO: 5), reverse 5′-[…]-3′ (SEQ ID NO: 6); osteopontin forward 5′-[…]-3′ (SEQ ID NO: 7), reverse 5′-[…]-3′ (SEQ ID NO: 8). β-actin forward 5′-[…]-3′ (SEQ ID NO: 9), reverse 3′-[…]-5′ (SEQ ID NO: 10) was used as an internal reference point. At the completion of the reaction, ΔΔCt was calculated to quantify mRNA expression.
# [3] = screen, MSCs from one donor (Donor 1), analogs and daidzein 1 μM, estrogen 10 nM, 14 days
# [4] = 1 μM + 100 nM fulvestrant, FIG. 12
# [5] = Donor 1, estrogen 10 nM, 14 days
# [6] = Donor 2, estrogen 10 nM, 14 days
# [7] = Donor 3, estrogen 10 nM, 14 days
smiles,measurement,setting,value
"CC1(C)CCc2c(ccc3c2OCC(c2ccc(O)cc2)C3=O)O1 (centres unmarked) [compound 4, 3-(4-Hydroxyphenyl)-8,8-dimethyl-2,3,9,10-tetrahydropyrano[2,3-f]chromen-4(8H)-one]",melting point,,176 to 180 °C
same,"osteogenic activity (structure-activity summary, in words)",[1]; 14 days,modest potential
"CC1(C)C=Cc2c(ccc3c(=O)c(-c4ccc(O)cc4)coc23)O1 [compound 3, 3-(4-Hydroxyphenyl)-8,8-dimethyl-8H-pyrano[2,3f]-chromen-4-one]",melting point,,262 to 264 °C
same,"osteogenic activity (structure-activity summary, in words)",[1]; 14 days,did not exhibit any osteogenic activity
"O=c1c(-c2ccc(O)cc2)coc2cc(OCCN3CCCC3)ccc12 [2j, 3-(4-Hydroxyphenyl)-7-(2-(pyrrolidin-1-yl)ethoxy)-4H-chromen-4-one]","osteogenic activity (structure-activity summary, in words)",[1]; 14 days,no osteogenic effect
"CCCCOc1ccc2c(c1)OCC(c1ccc(O)cc1)C2 (centres unmarked) [compound 9, 4-(7-Butoxychroman-3-yl)phenol]","osteogenic activity (structure-activity summary, in words)",[1]; 14 days,no osteogenic activity
"C#CCOc1ccc2c(=O)c(-c3ccc(O)cc3)coc2c1 [compound 6, 3-(4-Hydroxyphenyl)-7-(prop-2-yn-1-yloxy)-4H-chromen-4-one]",melting point,,228 to 230 °C
same,"osteogenic activity (structure-activity summary, in words)",[1]; 14 days,only modest osteogenic potential
"CC(C)COc1ccc2c(=O)c(-c3ccc(O)cc3)coc2c1 [2f, 3-(4-Hydroxyphenyl)-7-isobutoxy-4H-chromen-4-one]",differentiation at day 7,[1],enhanced differentiation at day 7
same,IC50 (analog concentration required to achieve 1.5 fold relative bone differentiation),"[1]; donor 3, 1 nM-1 μM, 14 days",1.38 μM
same,"osteogenic activity (structure-activity summary, in words)",[1]; 14 days,marked enhancement
same,IC50,[1]; 14 days,504 nM
same,"induction category of osteogenic differentiation (no, low, high induction)",[1]; [3],high inducers
same,"osteogenesis averaged over all three donors, relative to vehicle treated MSCs",[1]; 14 days,1.8±0.48
"CC1(C)C=Cc2c(ccc3c(=O)c(-c4ccc(B5OC(C)(C)C(C)(C)O5)cc4)coc23)O1 [compound 8, 8,8-dimethyl-3-(4-(4,4,5,5-tetramethyl-1,3,2-dioxaborolan-2-yl)phenyl)pyrano[2,3-f]chromen-4(8H)-one]",melting point,,228 to 230 °C
"CC1(C)C=Cc2cc3c(cc2O1)OCC(c1ccc(O)cc1)C3 (centres unmarked) [compound 10, 4-(8,8-Dimethyl-2,3,4,8-tetrahydropyrano[3,2-g]chromen-3-yl)phenol]","osteogenesis averaged over all three donors, relative to vehicle treated MSCs",[1]; 14 days,2.2±0.19
"CCOc1ccc2c(=O)c(-c3ccc(O)cc3)coc2c1 [2b, 7-Ethoxy-3-(4-hydroxyphenyl)-4H-chromen-4-one]","osteogenic activity (structure-activity summary, in words)",[1]; 14 days,modest osteogenic activity
"COc1ccc2c(=O)c(-c3ccc(O)cc3)coc2c1 [2a, 3-(4-Hydroxyphenyl)-7-methoxy-4H-chromen-4-one]","osteogenic activity (structure-activity summary, in words)",[1]; 14 days,modest osteogenic activity
"CN(C)CCOc1ccc2c(=O)c(-c3ccc(O)cc3)coc2c1 [2k, 7-(2-(Dimethylamino)ethoxy)-3-(4-hydroxyphenyl)-4H-chromen-4-one]","osteogenic activity (structure-activity summary, in words)",[1]; 14 days,no osteogenic effect
"COc1ccc(NC(=O)c2ccc(OC)cc2OC)cc1 [12a, 2,4-Dimethoxy-N-(4-methoxyphenyl)benzamide]","osteogenic activity (structure-activity summary, in words)",[1]; 14 days,strong osteogenic activity
same,"induction category of osteogenic differentiation (no, low, high induction)",[1]; [3],high inducers
"CCCCOc1ccc2c(=O)c(-c3ccc(O)cc3)coc2c1 [2e, 7-Butoxy-3-(4-hydroxyphenyl)-4H-chromen-4-one]","osteogenic activity (structure-activity summary, in words)",[1]; 14 days,marked enhancement; also recorded: over two-fold increase
same,"induction category of osteogenic differentiation (no, low, high induction)",[1]; [3],high inducers
same,"osteogenesis averaged over all three donors, relative to vehicle treated MSCs",[1]; 14 days,2.3±0.33
"CCCOc1ccc2c(=O)c(-c3ccc(O)cc3)coc2c1 [2d, 3-(4-Hydroxyphenyl)-7-propoxy-4H-chromen-4-one]",cytotoxicity to donor MSCs,[1]; 14 days,cytotoxic; also recorded: toxicity to two donor cells
same,"osteogenic activity (structure-activity summary, in words)",[1]; 14 days,modest osteogenesis
"COc1ccc(C(=O)Nc2ccc(OCC(C)C)cc2)c(OC)c1 [12b, N-(4-Isobutoxyphenyl)-2,4-dimethoxybenzamide]","osteogenic activity (structure-activity summary, in words)",[1]; 14 days,not active at all
"Cc1cc2c(ccc3c(=O)c(-c4ccc(O)cc4)coc32)o1 [compound 7, 3-(4-hydroxyphenyl)-8-methyl-4H-furo[2,3-h]chromen-4-one]","osteogenic activity (structure-activity summary, in words)",[1]; 14 days,modest potential
"O=c1c(-c2ccc(O)cc2)coc2cc(O)ccc12 [daidzein, Daidzein]","osteogenic potential of ASCs relative to vehicle, with fulvestrant",ASCs; [4],1.0 fold
same,"osteogenic potential of ASCs relative to vehicle, inhibitor study, without fulvestrant","ASCs; 1 μM, FIG. 12",1.5 fold
same,"cytotoxicity of ASCs by bright field microscopy, compared to vehicle",ASCs,did not demonstrate enhanced cytotoxicity
same,"osteogenic differentiation (calcium deposition), fold relative to vehicle-treated ASCs",ASCs,1.7 fold
same,"osteogenic potential of BMSCs relative to vehicle, with fulvestrant",BMSCs; [4],1.0 fold
same,"osteogenic potential of BMSCs relative to vehicle, inhibitor study, without fulvestrant","BMSCs; 1 μM, FIG. 12",1.7 fold
same,"cytotoxicity of BMSCs by bright field microscopy, compared to vehicle",BMSCs,did not demonstrate enhanced cytotoxicity
same,"osteogenic differentiation (calcium deposition), fold relative to vehicle-treated BMSCs",BMSCs,1.5 fold
same,"osteogenic differentiation of MSCs, fold relative to vehicle treated MSCs",[1]; [5],1.7±0.19 fold
same,"osteogenic differentiation of MSCs, fold relative to vehicle treated MSCs",[1]; [6],1.7±0.01 fold
same,"osteogenic differentiation of MSCs, fold relative to vehicle treated MSCs",[1]; [7],1.6±0.15 fold
same,"induction category of osteogenic differentiation (no, low, high induction)",[1]; [3],low inducers
same,osteogenic differentiation relative to vehicle treated MSCs in ODM,[1]; [3],1.7±0.3 fold
"O=c1c(-c2ccc(O)cc2)coc2cc(OCCN3CCCCC3)ccc12 [2i, 3-(4-Hydroxyphenyl)-7-(2-(piperidin-1-yl)ethoxy)-4H-chromen-4-one]",cytotoxicity to donor MSCs,[1]; 14 days,cytotoxic; also recorded: potent toxicity to two donors
same,"induction category of osteogenic differentiation (no, low, high induction)",[1]; [3],high inducers
"O=c1c(-c2ccc(O)cc2)coc2cc(O)cc(O)c12 [genistein, reference compound]",ASC donors that did not respond to treatment,"ASCs; 6 donors, 1 μM",3 of the 6
same,"cytotoxicity of ASCs by bright field microscopy, compared to vehicle",ASCs,did not demonstrate enhanced cytotoxicity
same,"osteogenic differentiation (calcium deposition), fold relative to vehicle-treated ASCs",ASCs,1.4 fold
same,BMSC donors that did not respond to treatment,"BMSCs; 6 donors, 1 μM",2 of the 6
same,"cytotoxicity of BMSCs by bright field microscopy, compared to vehicle",BMSCs,did not demonstrate enhanced cytotoxicity
same,"osteogenic differentiation (calcium deposition), fold relative to vehicle-treated BMSCs",BMSCs,1.4 fold
same,"osteogenic differentiation of MSCs, fold relative to vehicle treated MSCs",[1]; [5],1.6±0.19 fold
same,"osteogenic differentiation of MSCs, fold relative to vehicle treated MSCs",[1]; [6],1.7±0.02 fold
same,"osteogenic differentiation of MSCs, fold relative to vehicle treated MSCs",[1]; [7],1.0±0.15 fold
"COc1ccc(C(=O)Nc2ccc(O)cc2)c(OC)c1 [compound 11, N-(4-Hydroxyphenyl)-2,4-dimethoxybenzamide]","osteogenic activity (structure-activity summary, in words)",[1]; 14 days,not active at all
"CC1(C)CCc2c(ccc3c2OCC(c2ccc(O)cc2)C3)O1 (centres unmarked) [compound 5, 4-(8,8-Dimethyl-2,3,4,8,9,10-hexahydropyrano[2,3-f]chromen-3-yl)phenol]","osteogenic activity (structure-activity summary, in words)",[1]; 14 days,no discernible osteogenic activity
"CC(C)Oc1ccc2c(=O)c(-c3ccc(O)cc3)coc2c1 [2c, 3-(4-Hydroxyphenyl)-7-isopropoxy-4H-chromen-4-one]",ALP expression relative to cells treated with vehicle in ODM,[2],2.45±0.80
same,IGF1 expression relative to cells treated with vehicle in ODM,[2],26.96±9.19
same,OP expression relative to cells treated with vehicle in ODM,[2],2.68±0.11
same,Sp7 expression relative to cells treated with vehicle in ODM,[2],20.08±4.81
same,"osteogenic differentiation (calcium deposition), fold relative to vehicle-treated ASCs",ASCs,1.7 fold
same,"osteogenic differentiation (calcium deposition), fold relative to vehicle-treated BMSCs",BMSCs,1.6 fold
same,differentiation at day 7,[1],enhanced differentiation at day 7
same,"osteogenic activity (structure-activity summary, in words)",[1]; 14 days,marked enhancement
same,IC50,[1]; 14 days,58.2 nM
same,"induction category of osteogenic differentiation (no, low, high induction)",[1]; [3],high inducers
same,"osteogenesis averaged over all three donors, relative to vehicle treated MSCs",[1]; 14 days,2.0±0.41
"CCCCCCOc1ccc2c(=O)c(-c3ccc(O)cc3)coc2c1 [2h, 7-Hexyloxy-3-(4-hydroxyphenyl)-4H-chromen-4-one]","osteogenic activity (structure-activity summary, in words)",[1]; 14 days,marked enhancement
same,"induction category of osteogenic differentiation (no, low, high induction)",[1]; [3],high inducers
same,"osteogenesis averaged over all three donors, relative to vehicle treated MSCs",[1]; 14 days,2.0±0.48
